Measurements published in US6951881B2, “(1-substituted-indol-3-yl) alkylidenehydrazinecarboximidamide derivatives as 5-hydroxytryptamine-6 ligands” (Wyeth, priority 2002, dated 2005).

Each molecule was assayed against T1, human cloned 5-HT6 receptors (Homo sapiens, UniProt P50406). Conditions: not given.
T1 construct: expressed in transfected cells; host or cells: HeLa cells
Type: binding

T1 sequence (P50406 whole entry): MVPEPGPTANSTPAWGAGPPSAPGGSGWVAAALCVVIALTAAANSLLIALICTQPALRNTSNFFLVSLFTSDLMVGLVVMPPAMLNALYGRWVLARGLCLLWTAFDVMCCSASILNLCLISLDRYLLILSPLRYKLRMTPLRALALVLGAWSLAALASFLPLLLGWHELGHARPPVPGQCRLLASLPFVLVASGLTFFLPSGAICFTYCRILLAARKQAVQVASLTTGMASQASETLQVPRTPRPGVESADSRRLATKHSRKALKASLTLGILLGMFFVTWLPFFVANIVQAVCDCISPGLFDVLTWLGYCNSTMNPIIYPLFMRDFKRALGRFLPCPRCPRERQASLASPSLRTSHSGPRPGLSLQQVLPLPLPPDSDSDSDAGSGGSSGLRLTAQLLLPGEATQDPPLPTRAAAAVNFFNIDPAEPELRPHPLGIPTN

| Molecule | inhibition at 0.1 µM [%] |
| --- | --- |
| CN(N=C1CCc2[nH]c3ccc(Cl)cc3c21)C1=NCCN1 [Example 184, 7-Chloro-3,4-dihydrocyclopenta[b]indol-1(2H)-one 4,5-dihydro-1H-imidazol-2-yl-(methyl)hydrazone] | 19.8 |

Same assay, conditions: test compound dose 100 nM; displacement of [3H]-LSD

| Molecule | % Inhibition [%] |
| --- | --- |
| N-benzyl-2-(6-chloro-1,2,3,9-tetrahydro-4H-carbazol-4-ylidene)hydrazinecarboximidamide [Example 182] | 47.3 |

Same assay, conditions: test compound dose 100 nM; displacement of [3H]-LSD; read-out: % Inhibition

| Molecule | inhibition at 0.1 µM [%] |
| --- | --- |
| Cc1ccc2[nH]c3c(c2c1)C(=NNC(=N)N)CC(c1ccccc1)C3 (stereo not drawn) [Example 164, 2-(6-methyl-2-phenyl-1,2,3,9-tetrahydro-4H-carbazol-4-ylidene)hydrazinecarboximidamide] | 27.6 |
| Cc1ccc2[nH]c3c(c2c1)C(=NNC(=N)N)CCC3 [Example 165, 2-(6-methyl-1,2,3,9-tetrahydro-4H-carbazol-4-ylidene)hydrazinecarboximidamide] | 57.2 |
| CC(C)c1ccc2[nH]c3c(c2c1)C(=NNC(=N)N)CC(C)(C)C3 [Example 166, 2-(6-isopropyl-2,2-dimethyl-1,2,3,9-tetrahydro-4H-carbazol-4-ylidene)hydrazinecarboximidamide] | 27.3 |
| CC(C)c1ccc2[nH]c3c(c2c1)C(=NNC(=N)N)CC(c1ccccc1)C3 (stereo not drawn) [Example 167, 2-(6-isopropyl-2-phenyl-1,2,3,9-tetrahydro-4H-carbazol-4ylidene)hydrazinecarboximidamide] | 35.2 |
| CC1(C)CC(=NNC(=N)N)c2c([nH]c3ccc(OC(F)(F)F)cc23)C1 [Example 168, 2-[2,2-dimethyl-6-(trifluoromethoxy)-1,2,3,9-tetrahydro-4H-carbazol-4-ylidene]hydrazinecarboximidamide] | 26 |
| CC1(C)CC(=NNC(=N)N)c2c([nH]c3ccc(Br)cc23)C1 [Example 169, 2-(6-bromo-2,2-dimethyl-1,2,3,9-tetrahydro-4H-carbazol-4-ylidene)hydrazinecarboximidamide] | 33.9 |
| N=C(N)NN=C1CC(c2ccccc2)Cc2[nH]c3ccc(Br)cc3c21 (stereo not drawn) [Example 170, 2-(6-bromo-2-phenyl-1,2,3,9-tetrahydro-4H-carbazol-4-ylidene)hydrazinecarboximidamide] | 24.4 |

The remaining lines, values ahead:

| inhibition at 0.1 µM [%] | Molecule |
| --- | --- |
| 30.7 | CC1(C)CC(=NNC(=N)N)c2c([nH]c3ccc(Cl)cc23)C1 [Example 171, 2-(6-chloro-2,2-dimethyl-1,2,3,9-tetrahydro-4H-carbazol-4-ylidene)hydrazinecarboximidamide] |
| 24.6 | N=C(N)NN=C1CC(c2ccccc2)Cc2[nH]c3ccc(Cl)cc3c21 (stereo not drawn) [Example 172, 2-(6-chloro-2-phenyl-1,2,3,9-tetrahydro-4H-carbazol-4-ylidene)hydrazinecarboximidamide] |
| 26.7 | CC1(C)CC(=NNC(=N)N)c2c([nH]c3ccc(F)cc23)C1 [Example 173, 2-(6-fluoro-2,2-dimethyl-1,2,3,9-tetrahydro-4H-carbazol-4-ylidene)hydrazinecarboximidamide] |
| 25.5 | Cc1ccc2[nH]c3c(c2c1)C(=NN(C)C1=NCCN1)CC(C)(C)C3 [Example 174, 2,2,6-trimethyl-1,2,3,9-tetrahydro-4H-carbazol-4-one 4,5-dihydro-1H-imidazol-2-yl(methyl)-hydrazone] |
| 18.6 | Cc1ccc2[nH]c3c(c2c1)C(=NN(C)C1=NCCN1)CC(c1ccccc1)C3 (stereo not drawn) [Example 175, 6-methyl-2-phenyl-1,2,3,9-tetrahydro-4H-carbazol-4-one 4,5-dihydro-1H-imidazol-2-yl(methyl)-hydrazone] |
| 24.2 | Cc1ccc2[nH]c3c(c2c1)C(=NN(C)C1=NCCN1)CCC3 [Example 176, 6-methyl-1,2,3,9-tetrahydro-4H-carbazol-4-one 4,5-dihydro-1H-imidazol-2-yl(methyl)hydrazone] |
| 22.9 | CC(C)c1ccc2[nH]c3c(c2c1)C(=NN(C)C1=NCCN1)CC(C)(C)C3 [Example 177, 6-isopropyl-2,2-dimethyl-1,2,3,9-tetrahydro-4H-carbazol-4-one 4,5-dihydro-1H-imidazol-2-yl(methyl)hydrazone] |
| 25.6 | CC(C)c1ccc2[nH]c3c(c2c1)C(=NN(C)C1=NCCN1)CC(c1ccccc1)C3 (stereo not drawn) [Example 178, 6-isopropyl-2-phenyl-1,2,3,9-tetrahydro-4H-carbazol-4-one 4,5-dihydro-1H-imidazol-2-yl-(methyl)hydrazone] |
| 5.6 | CC(C)c1ccc2[nH]c3c(c2c1)C(=NN(C)C1=NCCN1)CCC3 [Example 179, 6-isopropyl-1,2,3,9-tetrahydro-4H-carbazol-4-one 4,5-dihydro-1H-imidazol-2-yl(methyl)-hydrazone] |
| 11.5 | CN(N=C1CC(c2ccccc2)Cc2[nH]c3ccc(F)cc3c21)C1=NCCN1 (stereo not drawn) [Example 180, 6-fluoro-2-phenyl-1,2,3,9-tetrahydro-4H-carbazol-4-one 4,5-dihydro-1H-imidazol-2-yl(methyl)-hydrazone] |
| 47 | CCCCCNC(=N)NN=C1CCCc2[nH]c3ccc(Cl)cc3c21 [Example 181, 2-(6-chloro-1,2,3,9-tetrahydro-4H-carbazol-4-ylidene)-N-pentylhydrazinecarboximidamide] |
| 55.3 | N=C(NN=C1CCCc2[nH]c3ccc(Cl)cc3c21)NC1CCCC1 [Example 183, 2-(6-chloro-1,2,3,9-tetrahydro-4H-carbazol-4-ylidene)-N-cyclopentylhydrazinecarboximidamide] |
